Assay: Serum levels of analgesic in human blood after oral therapeutic doses
Type: in vivo
Settings: adult humans, conversion of mg/L by molecular weight
Description: Table 3 summarizes the results of several studies that measured serum levels of analgesic after oral therapeutic doses in adult humans. […] Therefore, the doses of analgesic tested in vitro in Table 2 cover the range of concentrations achievable in vivo in humans.

Maximum serum levels after oral therapeutic doses: ≤ 260 µM
Compound: COc1ccc2cc([C@H](C)C(=O)O)ccc2c1 [Naproxen]
